# Test results taken from patent US20250325467A1, “COMPOSITIONS FOR PREVENTING OR TREATING SKIN AGING” (ESTETRA SRL, priority 2021, published 2025).
# System: human monocytes
# Assay: Immune cell polarization (qPCR of M1/M2 markers), human monocytes
# Assay type: cell-based
# Details: activated human monocytes; qPCR markers NOS2, ARG1
# Protocol: Immune cell polarization was evaluated in vitro using markers for M1/TH-1 (NOS2) and M2/TH-2 (ARG1) phenotype with human monocytes and mouse monocytes (BMDM bone marrow derived monocytes).
# Human blood was collected under national ethical approval with full informed written patient consent. Freshly isolated human blood was collected in EDTA vacutainer tubes, diluted 1:1 in PBS and gently layered onto histopaque (Merck). Tubes were immediately centrifuged at 100×g for 30 minutes and the whitish buffy layer formed at the histopaque interface aspirated and washed (centrifuged 100×g, 10 minutes) twice with sterile PBS. Untouched classical (CD14++, CD16−) monocytes were isolated from the washed buffy layer cells using the Miltenyi Classical Monocyte Isolation Kit, LS columns and a MidiMACs separator (Miltenyi). Isolated cells were seeded into tissue culture plates and stimulated to differentiate using PMA.
# An experiment was conducted to evaluate the anti-inflammatory effects of E4 or vehicle (negative control). qPCR methodology was used to assess the effects of E2 and E4 on immune cell polarization using well validated marker of pro-inflammatory (NOS2 for MI/TH-1 phenotype) and anti-inflammatory (ARG1 for ME/TH-2 phenotype) activity.
smiles,measurement,value
"C[C@]12CC[C@@H]3c4ccc(O)cc4CC[C@H]3[C@@H]1[C@@H](O)[C@@H](O)[C@@H]2O [E4, 1,3,5 (10)-estratrien-3,15alpha,16alpha,17beta-tetrol]",immune cell polarization (monocyte subtype M1/M2),switch from monocyte subtype M1 (pro-inflammatory) to subtype M2 (healing)
